Assay results as given in patent US8470816B2, “Nitrogen-containing heterocyclic compound and use thereof” (Takeda Pharmaceutical Company Limited, priority 2007, dated 2013).
pIC50: −log10 of the molar value.

Tests used:
[1] = biological target: human NK3 (hNK3) receptor (Homo sapiens (Human), UniProt P29371); assay: Human NK3 receptor binding assay: radioligand ([125I]-NK-B) binding inhibition using membrane fraction of CHO cells expressing hNK3 receptor; details: CHO cell membrane fraction
Protocol: CHO cells expressing hNK3 receptor were cultured in a MEMα medium (Nikken Seibutsu Igaku Kenkyusho, K.K.) containing 100 U/mL penicillin, 100 μg/mL streptomycin and 10% inactivated dialyzed serum. The medium was removed, the adhered cells were washed with PBS, and PBS containing 5 mM EDTA was added to detach the cells from the flask. The cells were collected by centrifugation, suspended in suspension buffer A (50 mM Tris-HCl (pH 7.4) containing 120 mM NaCl, 5 mM KCl, 2 μg/mL chymostatin, 40 μg/mL bacitracin, 40 μg/mL APMSF, 1 mM EDTA), disrupted by a Polytron homogenizer (Kinematika), and centrifuged at 800×g for 10 min. The supernatant was recovered and ultracentrifuged at 100,000×g for 25 min. The precipitation fraction was suspended in suspension buffer B (50 mM Tris-HCl (pH 7.4), 0.02% bovine serum albumin, 2 μg/mL chymostatin, 40 μg/mL bacitracin, 40 μg/mL APMSF, 3 mM MnCl2), and cryopreserved (−80° C.) as a receptor reference standard. […]
After reaction at 25° C. for 30 min, the reaction was quenched using a cell harvester (PerkinElmer) by rapid filtration on a GF/C filter plate, and the cells were washed 5 times with 250 μL of a 50 mM Tris-HCl buffer (pH 7.4) containing 0.02% bovine serum albumin. The GF/C filter plate was dried, MicroScinti-0 (Perkin Elmer) was added by 20 μL, and the radioactivity was measured on a TopCount (PerkinElmer). […]

human NK1 receptor = human NK1 receptor (Homo sapiens (Human), UniProt P25103); assay: Human NK1 receptor binding assay: radioligand (125I-Bolton-Hunter-SP) binding inhibition using receptor from human lymphoblast cells (IM-9)
Chain of human NK1 receptor (P25103 whole entry): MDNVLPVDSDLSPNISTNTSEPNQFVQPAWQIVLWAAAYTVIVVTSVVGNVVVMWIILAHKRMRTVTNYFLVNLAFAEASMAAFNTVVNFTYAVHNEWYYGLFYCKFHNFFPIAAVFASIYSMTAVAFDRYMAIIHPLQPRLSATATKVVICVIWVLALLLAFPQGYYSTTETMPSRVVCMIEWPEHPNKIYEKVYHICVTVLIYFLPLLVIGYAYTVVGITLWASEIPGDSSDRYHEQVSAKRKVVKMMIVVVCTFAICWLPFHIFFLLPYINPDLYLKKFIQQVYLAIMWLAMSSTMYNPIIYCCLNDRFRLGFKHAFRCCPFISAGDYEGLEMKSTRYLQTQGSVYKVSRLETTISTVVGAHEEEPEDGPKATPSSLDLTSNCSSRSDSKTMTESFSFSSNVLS
Protocol: 42, p. […] The receptor was prepared from human lymphoblast cells (IM-9).

[2] = biological target: human NK2 (hNK2) receptor (Homo sapiens (Human), UniProt P21452); assay: Human NK2 receptor binding assay: radioligand ([125I]-NK-A) binding inhibition using membrane fraction of CHO cells expressing hNK2 receptor; details: CHO cell membrane fraction
Chain of human NK2 (hNK2) receptor (P21452 whole entry): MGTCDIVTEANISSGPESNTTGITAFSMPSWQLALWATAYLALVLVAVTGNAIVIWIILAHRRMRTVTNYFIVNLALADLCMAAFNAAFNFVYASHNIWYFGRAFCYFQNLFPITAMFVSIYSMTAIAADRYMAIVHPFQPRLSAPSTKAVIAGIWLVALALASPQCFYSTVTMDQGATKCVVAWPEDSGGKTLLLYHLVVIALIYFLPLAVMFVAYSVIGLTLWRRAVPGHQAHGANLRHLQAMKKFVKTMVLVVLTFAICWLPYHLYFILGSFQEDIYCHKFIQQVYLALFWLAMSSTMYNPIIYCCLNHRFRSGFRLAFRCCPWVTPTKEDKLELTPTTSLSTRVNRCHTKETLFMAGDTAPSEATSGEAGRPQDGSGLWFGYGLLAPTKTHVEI
Protocol: CHO cells expressing hNK2 receptor were cultured in a HAM-F12 medium containing 400 μg/mL geneticin, 100 U/mL penicillin, 100 μg/mL streptomycin and 10% inactivated serum. The medium was removed, the adhered cells were washed with PBS, and PBS containing 5 mM EDTA was added to detach the cells from the flask. The cells were collected by centrifugation, suspended in suspension buffer A (15 mM Tris-HCl (pH 7.5), 2 mM MgCl2, 0.3 mM ethylenediaminetetraacetic acid (EDTA), 1 mM O,O′-bis(2-aminoethyl)ethyleneglycol-N,N,N′,N′-tetraacetic acid (EGTA)), disrupted by a Polytron homogenizer (Kinematika), and centrifuged at 800×g for 10 min. The supernatant was recovered and ultracentrifuged at 100,000×g for 25 min.
Measurement buffer (50 mM Tris-HCl (pH 7.4), 0.02% bovine serum albumin, 2 μg/mL chymostatin, 40 μg/mL bacitracin, 40 μg/mL APMSF, 3 mM MnCl2) (50 μL) was added to a 96-well microassay plate. The membrane reference standard (20 μg/mL) suspended in a measurement buffer was added by 50 μL.
After reaction at 25° C. for 30 min, the reaction was quenched using a cell harvester (PerkinElmer) by rapid filtration on a GF/C filter plate, and the cells were washed 5 times with 250 μL of a 50 mM Tris-HCl buffer (pH 7.4) containing 0.02% bovine serum albumin. The GF/C filter plate was dried, MicroScinti-0 (PerkinElmer) was added by 20 μL, and the radioactivity was measured on a TopCount (PerkinElmer). The GF/C filter plate used had been immersed in 0.3% polyethyleneimine for one day.
The specific binding level is shown by a value obtained by subtracting non-specific binding level from the total binding level. The binding inhibitory activity of the test compound is shown by a ratio of the value obtained by subtracting the measurement value with addition of a test compound from the total binding level, to the value of the specific binding level.

Chain of human NK3 (hNK3) receptor (P29371 whole entry): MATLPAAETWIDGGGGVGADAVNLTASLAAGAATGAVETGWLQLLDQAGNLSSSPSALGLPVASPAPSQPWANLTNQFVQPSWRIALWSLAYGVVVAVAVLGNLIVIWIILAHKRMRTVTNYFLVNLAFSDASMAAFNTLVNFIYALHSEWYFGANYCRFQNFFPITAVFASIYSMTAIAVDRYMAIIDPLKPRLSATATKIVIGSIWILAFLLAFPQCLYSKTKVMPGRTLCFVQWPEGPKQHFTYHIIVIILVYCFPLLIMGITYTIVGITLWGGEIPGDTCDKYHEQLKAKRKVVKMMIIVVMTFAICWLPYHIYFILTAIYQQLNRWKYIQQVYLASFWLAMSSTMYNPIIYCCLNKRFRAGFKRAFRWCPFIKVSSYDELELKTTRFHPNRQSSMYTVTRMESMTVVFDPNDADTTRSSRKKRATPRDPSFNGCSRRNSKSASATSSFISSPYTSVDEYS

Q: Which melting point does the source give for `COc1ccc(C(=O)N(C)[C@@H]2CCN(C(=O)C3CCN(C(C)=O)CC3)C[C@H]2c2ccc(Cl)c(Cl)c2)cc1` here?
A: 134 to 136 °C

Q: Which melting point does the source give for `CC(=O)N1CCC(C(=O)N2CC[C@@H](N(C)C(=O)c3ccc(Br)cn3)[C@H](c3ccc(Cl)c(Cl)c3)C2)CC1` here?
A: 128 to 130 °C

Q: Which melting point does the source give for `CC(=O)N1CCC(C(=O)N2CC[C@@H](N(C)C(=O)c3ccc(Cl)cc3)[C@H](c3ccc(Cl)c(Cl)c3)C2)CC1.O` (hydrate or solvate) here?
A: 113 to 115 °C

Q: For `CN(C(=O)c1ccc(Cl)cc1)[C@@H]1CCN(C(=O)C2CCN(C(=O)CO)CC2)C[C@H]1c1ccc(Cl)c(Cl)c1.O` (hydrate or solvate), which melting point is on record?
A: 128 to 131 °C

Q: Which melting point does the source give for `CN(C(=O)c1ccc(C(F)(F)F)cc1)[C@@H]1CCN(C(=O)C2CCN(C(=O)CO)CC2)C[C@H]1c1ccc(Cl)c(Cl)c1.O` (hydrate or solvate) here?
A: 124 to 127 °C

Q: Which melting point does the source give for `CN(C(=O)c1ccc(Br)cc1)[C@@H]1CCN(C(=O)C2CCN(C(=O)CO)CC2)C[C@H]1c1ccc(Cl)c(Cl)c1.O` (hydrate or solvate) here?
A: 130 to 132 °C

Q: With `CC(=O)N1CCC(C(=O)N2CC[C@@H](N(C)C(=O)c3ccc(N4CCOCC4)cc3)[C@H](c3ccc(Cl)c(Cl)c3)C2)CC1.O` (hydrate or solvate) [Example 268, N-[(3R,4R)-1-[(1-acetylpiperidin-4-yl)carbonyl]-3-(3,4-dichlorophenyl)piperidin-4-yl]-N-methyl-4-morpholin-4-ylbenzamide monohydrate] as the compound, how does the melting point read?
A: 136 to 139 °C

Q: What does the source list for `CC(=O)N1CCC(C(=O)N2CC[C@@H](N(C)C(=O)c3ccc(-c4ccccc4)cc3)[C@H](c3ccc(Cl)c(Cl)c3)C2)CC1` (racemic) [Example 31, N-[(3R*,4R*)-1-[(1-acetylpiperidin-4-yl)carbonyl]-3-(3,4-dichlorophenyl)piperidin-4-yl]-N-methylbiphenyl-4-carboxamide]?
A: pIC50 [1]: 6.80; pIC50 (human NK1 receptor; radioligand binding inhibition, IM-9 cell receptor, read-out: hNK1 IC50): 6.39; pIC50 [2]: 8.77

Q: With `CC(=O)N1CCC(C(=O)N2C[C@@H](N(C)C(=O)c3cc(C(F)(F)F)cc(C(F)(F)F)c3)[C@H](c3ccc(Cl)c(Cl)c3)C2)CC1` (racemic) [Example 82, N-[(3S*,4R*)-1-[(1-acetylpiperidin-4-yl)carbonyl]-4-(3,4-dichlorophenyl)pyrrolidin-3-yl]-N-methyl-3,5-bis(trifluoromethyl)benzamide] as the compound, how does the pIC50 [2] read?
A: 8.66

Q: With `CC(=O)N1CCC(C(=O)N2CC[C@@H](N(C)C(=O)c3ccc(N4CCOCC4)cc3)[C@H](c3ccc(Cl)c(Cl)c3)C2)CC1.O` [Example 268, N-[(3R,4R)-1-[(1-acetylpiperidin-4-yl)carbonyl]-3-(3,4-dichlorophenyl)piperidin-4-yl]-N-methyl-4-morpholin-4-ylbenzamide monohydrate] as the compound, how does the “hNK1 % inh. (10 μM)” value (human NK1 receptor; 10 μM) read?
A: 58.2% inh.

Q: What about the pIC50 [2] of the same compound?
A: 9.38

Q: With `CN(C(=O)c1ccc(Cl)cc1)[C@@H]1CCN(C(=O)Nc2ccc(F)nc2)C[C@H]1c1ccc(Cl)c(Cl)c1` [Example 516, (3R,4R)-4-{[(4-chlorophenyl)carbonyl](methyl)amino}-3-(3,4-dichlorophenyl)-N-(6-fluoropyridin-3-yl)piperidine-1-carboxamide] as the compound, how does the melting point read?
A: 156 to 158 °C
